# Results from PubChem BioAssay AID330 (DTP/NCI, 2004).
# Where “and” joins values, the source holds several entries; their conditions need not be identical. Equal entries are not always repeated. Inconclusive results and toxic doses are left out.
# System: P388 leukemia ip, CD2F1 mice, survival T/C
# Test: NCI In Vivo Anticancer Drug Screen. Data for tumor model P388 Leukemia (intraperitoneal) in CD2F1 (CDF1) mice
# Settings: endpoint: median survival time, higher = longer survival
# How it was run: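 Mice carrying the transplanted tumor received test compound or vehicle. Survival was recorded in each group, and the value is the treated-group measurement divided by that of the vehicle-treated control group.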
# [1] = dose: 60.0 mg/kg/injection, schedule: Q01DX005 (ip), vehicle: saline with Tween-80
# [2] = dose: 120.0 mg/kg/injection, schedule: Q01DX005 (ip), vehicle: saline with Tween-80
# [3] = dose: 240.0 mg/kg/injection, schedule: Q01DX005 (ip), vehicle: saline with Tween-80
# [4] = dose: 50.0 mg/kg/injection, schedule: Q01DX009 (ip), vehicle: saline with Tween-80
# [5] = dose: 100.0 mg/kg/injection, schedule: Q01DX005 (ip), vehicle: Klucel (hydroxypropylcellulose) (HPC)
# [6] = dose: 200.0 mg/kg/injection, schedule: Q01DX005 (ip), vehicle: Klucel (hydroxypropylcellulose) (HPC)
# [7] = dose: 50.0 mg/kg/injection, schedule: Q01DX005 (ip), vehicle: saline with Tween-80
# [8] = dose: 100.0 mg/kg/injection, schedule: Q01DX005 (ip), vehicle: saline with Tween-80
# [9] = dose: 200.0 mg/kg/injection, schedule: Q01DX005 (ip), vehicle: saline with Tween-80
# [10] = dose: 100.0 mg/kg/injection, schedule: Q01DX009 (ip), vehicle: saline with Tween-80
# [11] = dose: 200.0 mg/kg/injection, schedule: Q01DX009 (ip), vehicle: saline with Tween-80
compound,measurement,setting,value
COC(=O)Nc1nc2ccccc2[nH]1,T/C,"dose: 20.0 mg/kg/injection, schedule: Q04DX003 (ip), vehicle: other",101 % of control
same,T/C,"dose: 20.0 mg/kg/injection, schedule: Q04DX003 (oral), vehicle: other",100 % of control
same,T/C,"dose: 40.0 mg/kg/injection, schedule: Q04DX003 (ip), vehicle: other",100 % of control
same,T/C,"dose: 40.0 mg/kg/injection, schedule: Q04DX003 (oral), vehicle: other",101 % of control
same,T/C,"dose: 80.0 mg/kg/injection, schedule: Q04DX003 (ip), vehicle: other",101 % of control
same,T/C,"dose: 80.0 mg/kg/injection, schedule: Q04DX003 (oral), vehicle: other",101 % of control
same,T/C,"dose: 160.0 mg/kg/injection, schedule: Q04DX003 (ip), vehicle: other",107 % of control
same,T/C,"dose: 160.0 mg/kg/injection, schedule: Q04DX003 (oral), vehicle: other",105 % of control
same,T/C,"dose: 320.0 mg/kg/injection, schedule: Q04DX003 (ip), vehicle: other",102 % of control
same,T/C,"dose: 320.0 mg/kg/injection, schedule: Q04DX003 (oral), vehicle: other",100 % of control
same,T/C,"dose: 640.0 mg/kg/injection, schedule: Q04DX003 (ip), vehicle: other",111 % of control
same,T/C,"dose: 640.0 mg/kg/injection, schedule: Q04DX003 (oral), vehicle: other",102 % of control
Cn1ncc2c(=O)[nH]c(-c3ccccc3)nc21,T/C,[1],105 % of control
same,T/C,[2],96 % of control
same,T/C,[3],105 % of control
C=C1C2CCC3C(CCC4C35CCC[C@]4(C)CN3CCO[C@H]35)(C2)[C@H]1O (some centres undefined),T/C,"dose: 1.0 mg/kg/injection, schedule: Q01DX009 (ip), vehicle: Klucel (hydroxypropylcellulose) (HPC)",100 % of control
same,T/C,"dose: 2.0 mg/kg/injection, schedule: Q01DX009 (ip), vehicle: Klucel (hydroxypropylcellulose) (HPC)",98 % of control
same,T/C,"dose: 4.0 mg/kg/injection, schedule: Q01DX009 (ip), vehicle: Klucel (hydroxypropylcellulose) (HPC)",106 % of control
same,T/C,"dose: 8.0 mg/kg/injection, schedule: Q01DX009 (ip), vehicle: Klucel (hydroxypropylcellulose) (HPC)",96 % of control
O=c1c2ccccc2sc2c([N+](=O)[O-])ccc(NCCNCCO)c12,T/C,[4],120 % of control and 123 % of control
CN=C(N)N/N=C(\C)c1ccc2ccccc2c1,T/C,"dose: 12.5 mg/kg/injection, schedule: Q04DX002 (ip), vehicle: saline",103 % of control
same,T/C,"dose: 25.0 mg/kg/injection, schedule: Q04DX002 (ip), vehicle: saline",101 % of control
same,T/C,"dose: 50.0 mg/kg/injection, schedule: Q04DX002 (ip), vehicle: saline",112 % of control
CC(C)C(NC(=O)CCNC(=O)OCc1ccccc1)C(=O)O (centres undefined),T/C,[5],102 % of control
same,T/C,[6],100 % of control
same,T/C,"dose: 400.0 mg/kg/injection, schedule: Q01DX005 (ip), vehicle: Klucel (hydroxypropylcellulose) (HPC)",96 % of control
c1ccc(P23(Oc4ccccc4S2)Oc2ccccc2S3)cc1,T/C,"dose: 100.0 mg/kg/injection, schedule: Q04DX003 (ip), vehicle: Klucel (hydroxypropylcellulose) (HPC)",93 % of control
same,T/C,"dose: 200.0 mg/kg/injection, schedule: Q04DX003 (ip), vehicle: Klucel (hydroxypropylcellulose) (HPC)",90 % of control
same,T/C,"dose: 400.0 mg/kg/injection, schedule: Q04DX003 (ip), vehicle: Klucel (hydroxypropylcellulose) (HPC)",91 % of control
O=C1CN(CCCN2c3ccccc3Sc3ccc(C(F)(F)F)cc32)CC(=O)N1,T/C,[7],103 % of control
same,T/C,[8],100 % of control
same,T/C,[9],104 % of control
CNC(=O)N1CC2CCC(C)(C1)OC2(C)C (centres undefined),T/C,"dose: 50.0 mg/kg/injection, schedule: Q01DX005 (ip), vehicle: Klucel (hydroxypropylcellulose) (HPC)",97 % of control
same,T/C,[5],100 % of control and 103 % of control
same,T/C,[6],103 % of control and 106 % of control
COc1ccc2c(c1N)CC[C@@H]1C2CC[C@]2(C)C(O)CCC12 (some centres undefined),T/C,[7],104 % of control
same,T/C,[8],96 % of control
same,T/C,[9],91 % of control
CCCCN(CCCC)C(=N)OC,T/C,"dose: 12.5 mg/kg/injection, schedule: Q01DX005 (ip), vehicle: suspension in saline",100 % of control
same,T/C,"dose: 25.0 mg/kg/injection, schedule: Q01DX005 (ip), vehicle: suspension in saline",108 % of control
same,T/C,"dose: 50.0 mg/kg/injection, schedule: Q01DX005 (ip), vehicle: saline",99 % of control
same,T/C,"dose: 50.0 mg/kg/injection, schedule: Q01DX005 (ip), vehicle: suspension in saline",117 % of control
O=C1c2ccccc2C(=O)c2c(O)c(NCCCNCCO)cc(O)c21,T/C,"dose: 2.5 mg/kg/injection, schedule: Q01DX009 (ip), vehicle: acid diluted with saline",103 % of control
same,T/C,"dose: 5.0 mg/kg/injection, schedule: Q01DX009 (ip), vehicle: acid diluted with saline",108 % of control
same,T/C,"dose: 10.0 mg/kg/injection, schedule: Q01DX009 (ip), vehicle: acid diluted with saline",103 % of control
same,T/C,"dose: 20.0 mg/kg/injection, schedule: Q01DX009 (ip), vehicle: acid diluted with saline",112 % of control
same,T/C,"dose: 40.0 mg/kg/injection, schedule: Q01DX009 (ip), vehicle: acid diluted with saline",111 % of control
same,T/C,"dose: 80.0 mg/kg/injection, schedule: Q01DX009 (ip), vehicle: acid diluted with saline",100 % of control
C#CC(C(C)C)N(CCO)CCCC (centres undefined),T/C,[1],105 % of control
same,T/C,[2],104 % of control
same,T/C,[3],102 % of control
CCOC(=O)CN=NNc1ccccc1C(=O)CC,T/C,"dose: 100.0 mg/kg/injection, schedule: Q01DX001 (ip), vehicle: Klucel (hydroxypropylcellulose) (HPC)",98 % of control
same,T/C,"dose: 200.0 mg/kg/injection, schedule: Q01DX001 (ip), vehicle: Klucel (hydroxypropylcellulose) (HPC)",100 % of control
same,T/C,"dose: 400.0 mg/kg/injection, schedule: Q01DX001 (ip), vehicle: Klucel (hydroxypropylcellulose) (HPC)",100 % of control
O=C1CN(Cc2ccc(Cl)cc2)CC(=O)N2Cc3ccccc3CN12,T/C,[7],102 % of control
same,T/C,[8],104 % of control
same,T/C,[9],103 % of control
O=C([O-])c1ccccc1[O-].[Cu+2].c1ccc(-c2ccccn2)nc1,T/C,"dose: 6.25 mg/kg/injection, schedule: Q01DX005 (ip), vehicle: Klucel (hydroxypropylcellulose) (HPC)",104 % of control
same,T/C,"dose: 12.5 mg/kg/injection, schedule: Q01DX005 (ip), vehicle: Klucel (hydroxypropylcellulose) (HPC)",113 % of control
c1ccc2sc(-c3ccncc3)nc2c1,T/C,[4],102 % of control
same,T/C,[10],99 % of control
same,T/C,[11],108 % of control
CC(=O)Nc1nc2c(=O)[nH]c(N)nc2n1C1OC(COC(C)=O)C(OC(C)=O)C1OC(C)=O (centres undefined),T/C,"dose: 50.0 mg/kg/injection, schedule: Q04DX003 (ip), vehicle: saline with Tween-80",96 % of control
same,T/C,"dose: 100.0 mg/kg/injection, schedule: Q04DX003 (ip), vehicle: saline with Tween-80",100 % of control
same,T/C,"dose: 200.0 mg/kg/injection, schedule: Q04DX003 (ip), vehicle: saline with Tween-80",105 % of control
same,T/C,"dose: 400.0 mg/kg/injection, schedule: Q04DX003 (ip), vehicle: saline with Tween-80",102 % of control
CC(C)(C)CC(C)(C)c1ccc(OCc2cccc(F)c2)cc1,T/C,[4],97 % of control
same,T/C,[10],97 % of control
same,T/C,[11],100 % of control
O/N=C(Sc1ccccn1)/C(=N/O)Sc1ccccn1,T/C,[7],101 % of control
same,T/C,[8],109 % of control
same,T/C,[9],113 % of control
O=c1[nH]c(=O)c2ncn(C3OC(CO)C(O)C3O)c2[nH]1.O=c1[nH]c(=O)c2ncn(C3OC(CO)C(O)C3O)c2[nH]1.[NH2-].[NH2-].[Pt+2] (centres undefined),T/C,"dose: 6.25 mg/kg/injection, schedule: Q01DX009 (ip), vehicle: saline",105 % of control
same,T/C,"dose: 12.5 mg/kg/injection, schedule: Q01DX009 (ip), vehicle: saline",110 % of control and 102 % of control
same,T/C,"dose: 25.0 mg/kg/injection, schedule: Q01DX009 (ip), vehicle: saline",92 % of control and 107 % of control
same,T/C,"dose: 50.0 mg/kg/injection, schedule: Q01DX009 (ip), vehicle: saline",100 % of control and 107 % of control
same,T/C,"dose: 50.0 mg/kg/injection, schedule: Q04DX003 (ip), vehicle: suspension in saline",105 % of control
same,T/C,"dose: 100.0 mg/kg/injection, schedule: Q01DX009 (ip), vehicle: saline",96 % of control and 116 % of control
same,T/C,"dose: 100.0 mg/kg/injection, schedule: Q04DX003 (ip), vehicle: suspension in saline",110 % of control
same,T/C,"dose: 200.0 mg/kg/injection, schedule: Q04DX003 (ip), vehicle: suspension in saline",120 % of control
same,T/C,"dose: 400.0 mg/kg/injection, schedule: Q04DX003 (ip), vehicle: water",174 % of control
CN(C)[C@@H]1C(=O)C(C(=O)NCNC2CC(C)(C)N(O)C(C)(C)C2)=C(O)C2(O)C(=O)C3=C(O)c4c(O)cccc4[C@@](C)(O)C3CC12 (some centres undefined),T/C,"dose: 100.0 mg/kg/injection, schedule: Q01DX001 (ip), vehicle: saline",105 % of control
same,T/C,"dose: 200.0 mg/kg/injection, schedule: Q01DX001 (ip), vehicle: saline",89 % of control
same,T/C,"dose: 400.0 mg/kg/injection, schedule: Q01DX001 (ip), vehicle: saline",91 % of control
